Where “and” joins values, the source holds several entries; their conditions need not be identical. Equal entries are not always repeated. Structures can show the parent of a compound that is named as a salt. Where two headings read alike, the source gives them in different places.
Columns and labels:
[1] = target: TbAQP2/HAPT1 (Trypanosoma brucei brucei, UniProt Q6ZXT3); assay: cell-based; type: cell-based
[2] = test system: s427WT bloodstream forms; type: cell-based, Trypanosoma brucei brucei
[3] = Gibbs free energy of binding to HAPT
[4] = NI/NE with the concentration tested, read-out: HAPT Ki, AVG

Chain of TbAQP2/HAPT1 (Q6ZXT3 whole entry): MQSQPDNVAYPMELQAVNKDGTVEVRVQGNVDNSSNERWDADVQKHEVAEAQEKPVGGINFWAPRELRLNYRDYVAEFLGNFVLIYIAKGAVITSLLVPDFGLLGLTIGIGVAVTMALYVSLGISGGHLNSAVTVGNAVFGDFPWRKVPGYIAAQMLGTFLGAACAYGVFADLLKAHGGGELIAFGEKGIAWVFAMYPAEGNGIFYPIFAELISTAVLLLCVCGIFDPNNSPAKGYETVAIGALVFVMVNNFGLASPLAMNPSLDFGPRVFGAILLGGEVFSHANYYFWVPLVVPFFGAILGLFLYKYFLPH

Structure (SMILES) | ΔG0 [1] | δ(ΔG^0) PMD [1] | Ki ([1]; Ki) | further results
N=C(N)c1ccc(O)cc1 [4-hydroxybenzamidine] | -14.5 kJ/mol | 28.1 kJ/mol | 2900 µM | Ki ([1]; HAPT Ki, AVG): 2890 µM
N=C(N)c1ccc(OCCCCOc2ccc(C(=N)N)cc2)cc1 [Butamidine, 4,4’-(Butane-l ,4-diylbis(oxy))dibenzimiamide dihydrochloride dihydrate] | -30.9 kJ/mol | 11.7 kJ/mol | 3.87 ± 1.38 µM | 
Cl.N=C(N)c1ccc(OCCCCOc2ccccc2)cc1.O [CHI/1/69/1, 4-(4-Phenoxybutoxy)benzimidamide hydrochloride hydrate] | -32.2 kJ/mol | 10.4 kJ/mol | 2.33 µM and 2.3 µM | 
CON1CCN=C1Nc1ccc(CCc2ccc(NC3=NCCN3OC)cc2)cc1 [CRMI8] | -24.4 kJ/mol | 18.1 kJ/mol | 52.8 ± 12.7 µM | 
N=C(N)c1ccc(OCCCOc2ccc(C(=N)N)cc2)cc1 [Chainlength 3] |  |  |  | Ki ([1]; Ki value, Mean): 7.2 µM
N=C(N)c1ccc(OCCCCOc2ccc(C(=N)N)cc2)cc1 [Chainlength 4] |  |  |  | Ki ([1]; Ki value, Mean): 3.91 µM
N=C(N)c1ccc(OCCCCCOc2ccc(C(=N)N)cc2)cc1 [Chainlength 5] |  |  |  | Ki ([1]; Ki value, Mean): 0.0364 µM
N=C(N)c1ccc(OCCCCCCOc2ccc(C(=N)N)cc2)cc1 [Chainlength 6] |  |  |  | Ki ([1]; Ki value, Mean): 0.059 µM
N=C(N)c1ccc(OCCCCCCCOc2ccc(C(=N)N)cc2)cc1 [Chainlength 7] |  |  |  | Ki ([1]; Ki value, Mean): 0.125 µM
N=C(N)c1ccc(OCCCCCCCCOc2ccc(C(=N)N)cc2)cc1 [Chainlength 8] |  |  |  | Ki ([1]; Ki value, Mean): 2.2 µM
N=C(N)c1ccc(-c2cc3ccc(C(=N)N)cc3[nH]2)cc1 [DAPI] | -26.1 kJ/mol |  |  | δ(ΔG0) [1]: 16.4 kJ/mol; Ki ([1]; read-out: HAPT Ki, AVG): 26.4 µM
Cn1c(-c2ccc(C(=N)N)cc2)ccc1-c1ccc(C(=N)N)cc1 [DB320] | -23.7 kJ/mol | 18.9 kJ/mol | 71.3 ± 12.1 µM | 
COc1ccc(-c2ccc(-c3ccc(C(=N)N)cc3)o2)cc1 [DB607, 4-(5-(4-methoxyphenyl)furan-2-yl) benzimidamide hydrochloride] | -27.1 kJ/mol | 15.5 kJ/mol | 18.1 ± 1.9 µM | 
N=C(N)Nc1ccc(-c2ccc(-c3ccc(NC(=N)N)cc3)s2)cc1 [DB686] | -37.3 kJ/mol | 5.2 kJ/mol | 0.29 ± 0.11 µM | 
N=C(N)c1ccc(-c2ccc(-c3ccc(C(=N)N)cn3)o2)cc1 [DB820] |  |  |  | ΔG0 [1, 3]: -24.9 kJ/mol; Ki [1, 4]: 43.4 µM; δ(ΔG0) ([1]; relative to pentamidine (0)): 17.7 kJ/mol
N=C(N)c1ccc(-c2ccc(-c3ccc(C(=N)N)cn3)o2)nc1 [DB829] | -25.1 kJ/mol | 17.4 kJ/mol | 39.9 ± 8 µM | 
N=C(N)c1ccc(-c2ccc(-c3ccc(-c4ccc(C(=N)N)cc4)o3)o2)cc1 [DB914] | -40.7 kJ/mol | 1.8 kJ/mol | 0.073 ± 0.013 µM | 
Cn1c(-c2ccc(-c3ccc(C(=N)N)cc3)o2)nc2ccccc21 [DB960, 4-(5-(1-methyl-1H-benzo[d]imidazol-2-yl)furan-2-yl) benzimidamide dihydrochloride] | -27.3 kJ/mol | 15.3 kJ/mol | 16.6 ± 3.5 µM | 
N=C(N)c1ccc(-c2ccc(-c3ccc(C(=N)N)nc3)o2)cn1 [DB994] | -21.6 kJ/mol | 21.0 kJ/mol | 167 ± 20 µM | 
N=C(N)CCc1ccc(-c2ccc(-c3ccc(CCC(=N)N)cc3)o2)cc1 [DB1061, 3,3'-(furan-2,5-diylbis (4,1-phenylene)) dipropanimidamide dihydrochloride] | -25.6 kJ/mol | 16.9 kJ/mol | 32.3 ± 6 µM | 
Cl.Cl.c1cc(-c2ccc(-c3ccc(CCC4=NCCN4)cc3)o2)ccc1CCC1=NCCN1 [DB1062, 2,5-bis(4-(2-(4,5-dihydro-1H-imidazol-2-yl)ethyl)phenyl) furan dihydrochloride] | -24.1 kJ/mol | 18.4 kJ/mol | 59.6 ± 11.2 µM | 
N=C(N)CCc1ccc(-c2ccc(-c3ccc(CCC(=N)N)cc3)s2)cc1 [DB1063, 3,3'-(thiophene-2,5-diylbis(4,1-phenylene)) dipropanimidamide dihydrochloride] | -36.5 kJ/mol | 6.0 kJ/mol | 0.4 ± 0.1 µM | 

Structure (SMILES) | ΔG0 [1] | δ(ΔG^0) PMD [1] | Ki ([1]; Ki) | further results
N=C(N)c1ccc(-c2csc(-c3ccc(C(=N)N)cc3)c2)cc1 [DB1077, 4,4'-(thiophene-2,4-diyl) dibenzimidamide dihydrochloride] | -27.7 kJ/mol | 14.8 kJ/mol | 13.8 ± 3.1 µM | 
N=C(N)c1ccc(OCCOCCOc2ccc(C(=N)N)cc2)cc1 [DB1699] | -27.3 kJ/mol | 15.3 kJ/mol | 16.6 ± 2.1 µM | 
N=C(N)c1ccc(-c2csc(-c3ccc(C(=N)N)cc3)n2)cc1 [ER1004, 4,4'-(thiazole-2,4-diyl)dibenzimidamide] | -23.8 kJ/mol | 18.8 kJ/mol | 68.7 ± 16 µM | 
Cl.Cl.N=C(N)c1ccc(OCCOc2ccc(C(=N)N)cc2)cc1.O.O [Ethamidine, 4,4'-(ethane-1,2-diylbis(oxy))dibenzimidamide dihydrochloride dihydrate] |  | >19.7 kJ/mol | > 100 µM | δ(ΔG0) [1]: >19.7 kJ/mol
c1cc(NC2=NCCN2)ccc1CCc1ccc(NC2=NCCN2)cc1 [FR39] | -25.0 kJ/mol | 17.6 kJ/mol | 41.7 ± 15.2 µM | 
N=C(N)c1ccc(OCCCCCCCOc2ccc(C(=N)N)cc2)cc1 [Heptamidine] | -39.4 kJ/mol | 3.1 kJ/mol | 0.123 ± 0.01 µM | 
N=C(N)c1ccc(OCCCCCCOc2ccc(C(=N)N)cc2)cc1 [Hexamidine] | -41.3 kJ/mol | 1.3 kJ/mol | 0.058 ± 0.011 µM | 
N=C(N)c1cccc(OCCCCCOc2cccc(C(=N)N)c2)c1 [Meta-pentamidine RT40] | -23.9 kJ/mol |  |  | δ(ΔG0) [1]: 18.6 kJ/mol; Ki ([1]; HAPT Ki, AVG): 64.2 µM
N=C(N)c1ccc(OCCCCCCCCOc2ccc(C(=N)N)cc2)cc1 [Octamidine] | -32.3 kJ/mol | 10.2 kJ/mol | 2.16 ± 0.48 µM | 
O=C(CCc1ccc(O)cc1)c1c(O)cc(O)cc1O [Phloretin] | -32.8 kJ/mol |  | 1.76 µM | δ(ΔG0) [1]: 9.7 kJ/mol
Cl.Cl.N=C(N)c1ccc(OCCCOc2ccc(C(=N)N)cc2)cc1.O.O [Propamidine, 4,4’-(propane-1,3-diylbis(oxy))dibenzimidamide dihydrochloride dihydrate] | -29.6 kJ/mol | 13.0 kJ/mol | 6.63 ± 1.4 µM | 
N=C(N)c1ccc(OCCCOc2ccc(C(=O)O)cc2)cc1 [RT-38] |  | >19.7 kJ/mol | > 100 µM | HAPT Ki, AVG [1]: NI, 100
N=C(N)c1ccc(OCCCCCOc2ccc(C(=N)N)cc2C(N)=O)c(C(N)=O)c1 [RT-46] |  | >19.7 kJ/mol | > 100 µM | Ki [1]: no affinity at all
N=C(N)c1ccc(S(=O)(=O)CCCCCS(=O)(=O)c2ccc(C(=N)N)cc2)cc1 [RT-49] |  | >20.7 kJ/mol | > 150 µM | Ki [1]: no binding affinity; δ(ΔG0) [1]: >20.7 kJ/mol
N=C(N)c1ccc(OCCCCCOc2ccc(C(=N)N)nc2)cn1 [RT-53] |  | >22 kJ/mol | > 250 µM | HAPT Ki, AVG [1]: NI, 250; Ki [1]: completely inactive; δ(ΔG0) [1]: >22 kJ/mol
N=C(N)c1ccc(/C=C/c2ccc(C(=N)N)cc2)cc1 [Stilbamidine] | -24.3 kJ/mol | 18.3 kJ/mol | 54.8 ± 3.2 µM | Ki ([1]; HAPT Ki, AVG): 54.8 µM
N=C(N)NCCCCCCCCCCN=C(N)N.O=S(=O)(O)O [Synthalin sulphate] |  |  |  | ΔG0 [1, 3]: -20.4 kJ/mol; Ki [1, 4]: 270 µM; δ(ΔG0) ([1]; relative to pentamidine (0)): 22.2 kJ/mol
COc1cc(/C=C/C(=O)CC(=O)/C=C/c2ccc(O)c(OC)c2)ccc1O [curcumin] | -19.4 kJ/mol |  |  | Ki [1]: failed to inhibit; δ(ΔG0) [1]: 23.2 kJ/mol; Ki ([1]; HAPT Ki, AVG): 398 µM
Cn1c([N+](=O)[O-])cnc1-c1nnc(N)s1 [megazol] |  |  |  | HAPT Ki, AVG [1]: NE, 250; Ki [1]: failed to inhibit
O=c1ccc2[n+]([O-])c3ccc(O)cc3oc-2c1 [resazurin] | -21.7 kJ/mol |  |  | δ(ΔG0) [1]: 20.8 kJ/mol; Ki ([1]; HAPT Ki, AVG): 155 µM
CC(C)[C@@H]1NC(=O)[C@H](C)OC(=O)[C@@H](C(C)C)NC(=O)[C@@H](C(C)C)OC(=O)[C@H](C(C)C)NC(=O)[C@H](C)OC(=O)[C@@H](C(C)C)NC(=O)[C@@H](C(C)C)OC(=O)[C@H](C(C)C)NC(=O)[C@H](C)OC(=O)[C@@H](C(C)C)NC(=O)[C@@H](C(C)C)OC1=O [valinomycin] |  |  |  | pentamidine uptake ([2]; valinomycin 0.3, AVG): 106.4 percentage of the uninhibited control; pentamidine uptake ([2]; valinomycin 0.3, single repeats): 108.9 percentage of the uninhibited control and 103.8 percentage of the uninhibited control; pentamidine uptake ([2]; valinomycin 1, AVG): 91.0 percentage of the uninhibited control; pentamidine uptake ([2]; valinomycin 1, single repeats): 97.7 percentage of the uninhibited control and 84.2 percentage of the uninhibited control; pentamidine uptake ([2]; valinomycin 10, AVG): 80.1 percentage of the uninhibited control; pentamidine uptake ([2]; valinomycin 10, single repeats): 86.7 percentage of the uninhibited control and 73.5 percentage of the uninhibited control
